Measurements as given in PubChem BioAssay AID330 (DTP/NCI, 2004).
Where “and” joins values, the source holds several entries; their conditions need not be identical. Identical values can stand only once. Toxic doses and inconclusive results are not listed.

System: P388 leukemia ip, CD2F1 mice, survival T/C
Test: NCI In Vivo Anticancer Drug Screen. Data for tumor model P388 Leukemia (intraperitoneal) in CD2F1 (CDF1) mice
Conditions: endpoint: median survival time, higher = longer survival
Outline: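 Mice carrying the transplanted tumor received test compound or vehicle. Survival was recorded in each group, and the value is the treated-group measurement divided by that of the vehicle-treated control group.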

[1] = dose: 50.0 mg/kg/injection, schedule: Q01DX005 (ip), vehicle: saline with Tween-80
[2] = dose: 100.0 mg/kg/injection, schedule: Q04DX002 (ip), vehicle: saline with Tween-80
[3] = dose: 200.0 mg/kg/injection, schedule: Q04DX002 (ip), vehicle: saline with Tween-80
[4] = dose: 400.0 mg/kg/injection, schedule: Q04DX002 (ip), vehicle: saline with Tween-80
[5] = dose: 60.0 mg/kg/injection, schedule: Q01DX005 (ip), vehicle: saline with Tween-80
[6] = dose: 120.0 mg/kg/injection, schedule: Q01DX005 (ip), vehicle: saline with Tween-80
[7] = dose: 240.0 mg/kg/injection, schedule: Q01DX005 (ip), vehicle: saline with Tween-80
[8] = dose: 50.0 mg/kg/injection, schedule: Q01DX009 (ip), vehicle: saline with Tween-80
[9] = dose: 100.0 mg/kg/injection, schedule: Q01DX009 (ip), vehicle: saline with Tween-80
[10] = dose: 200.0 mg/kg/injection, schedule: Q01DX009 (ip), vehicle: saline with Tween-80
[11] = dose: 50.0 mg/kg/injection, schedule: Q01DX009 (ip), vehicle: Klucel (hydroxypropylcellulose) (HPC)
[12] = dose: 100.0 mg/kg/injection, schedule: Q01DX009 (ip), vehicle: Klucel (hydroxypropylcellulose) (HPC)
[13] = dose: 200.0 mg/kg/injection, schedule: Q01DX009 (ip), vehicle: Klucel (hydroxypropylcellulose) (HPC)
[14] = dose: 50.0 mg/kg/injection, schedule: Q01DX005 (ip), vehicle: saline
[15] = dose: 100.0 mg/kg/injection, schedule: Q01DX005 (ip), vehicle: saline with Tween-80
[16] = dose: 200.0 mg/kg/injection, schedule: Q01DX005 (ip), vehicle: saline with Tween-80

With `CC([NH-])CC(C)[NH-].[Br][Pt+2][Br]` (stereo unspecified) the T/C (dose: 6.25 mg/kg/injection, schedule: Q04DX002 (ip), vehicle: saline with Tween-80) was 154 % of control and 171 % of control and 159 % of control and the T/C (dose: 12.5 mg/kg/injection, schedule: Q04DX002 (ip), vehicle: saline with Tween-80) was 188 % of control and 183 % of control and 186 % of control.

With `C=CCc1ccc(OCCN(CC)CC)c(OC)c1` the T/C (dose: 12.5 mg/kg/injection, schedule: Q01DX005 (ip), vehicle: saline with Tween-80) was 117 % of control, the T/C (dose: 25.0 mg/kg/injection, schedule: Q01DX005 (ip), vehicle: saline with Tween-80) was 113 % of control and the T/C [1] was 98 % of control.

With `CC(C)c1ccc2nc3ccc(C(=O)NCCN(C)C)cn3c(=O)c2c1` the T/C (dose: 60.0 mg/kg/injection, schedule: Q01DX005 (ip), vehicle: Klucel (hydroxypropylcellulose) (HPC)) was 105 % of control and the T/C (dose: 120.0 mg/kg/injection, schedule: Q01DX005 (ip), vehicle: Klucel (hydroxypropylcellulose) (HPC)) was 101 % of control.

With `O=c1[nH]c2ccccc2nc1/C=C(\O)c1ccc([N+](=O)[O-])cc1` the T/C (dose: 7.5 mg/kg/injection, schedule: Q01DX005 (ip), vehicle: Klucel + Tween-80) was 100 % of control, the T/C (dose: 15.0 mg/kg/injection, schedule: Q01DX005 (ip), vehicle: Klucel + Tween-80) was 89 % of control and the T/C (dose: 30.0 mg/kg/injection, schedule: Q01DX005 (ip), vehicle: Klucel + Tween-80) was 86 % of control.

With `CCOC(=O)/C(O)=C/C1=CC(=O)CC(C)(C)C1` the T/C [2] was 110 % of control, the T/C [3] was 114 % of control and the T/C [4] was 103 % of control.

With `O=S1(=O)c2ccccc2N(c2ccccc2)C2=NCCN21` the T/C [5] was 91 % of control, the T/C [6] was 99 % of control and the T/C [7] was 97 % of control.

In the case of `O=Nc1c(O)n(-c2ccccc2)c(=O)[nH]c1=O`, the T/C (dose: 50.0 mg/kg/injection, schedule: Q04DX002 (ip), vehicle: suspension in saline) is reported as 100 % of control, the T/C (dose: 100.0 mg/kg/injection, schedule: Q04DX002 (ip), vehicle: suspension in saline) is reported as 101 % of control and the T/C (dose: 200.0 mg/kg/injection, schedule: Q04DX002 (ip), vehicle: suspension in saline) is reported as 101 % of control.

For `O=C(CCl)NC(Cc1ccc(O)cc1)C(=O)O` (stereo unspecified), the T/C (dose: 25.0 mg/kg/injection, schedule: Q01DX009 (ip), vehicle: saline with Tween-80) was 104 % of control, the T/C [8] was 99 % of control and the T/C [9] was 101 % of control and 105 % of control. The T/C [10] was 94 % of control and the T/C (dose: 400.0 mg/kg/injection, schedule: Q01DX009 (ip), vehicle: saline with Tween-80) was 114 % of control.

For `CCCCCCSc1nc2ccc(NC(C)=O)cc2s1`, the T/C [11] was 107 % of control and the T/C [12] was 90 % of control.

For `CC1(C)CC(=O)C=C(NCCCCNC2=CC(=O)CC(C)(C)C2)C1`, the T/C [11] was 95 % of control, the T/C [12] was 95 % of control and the T/C [13] was 95 % of control.

In the case of `COc1ccc(CCNC(=O)c2cc3ccccc3oc2=O)cc1OC`, the T/C [8] is reported as 94 % of control, the T/C [9] is reported as 96 % of control and the T/C [10] is reported as 97 % of control.

With `Clc1cc(Cl)cc(N=Cc2cccs2)c1` the T/C (dose: 50.0 mg/kg/injection, schedule: Q01DX009 (ip), vehicle: saline) was 100 % of control, the T/C (dose: 100.0 mg/kg/injection, schedule: Q01DX009 (ip), vehicle: saline) was 100 % of control and the T/C (dose: 200.0 mg/kg/injection, schedule: Q01DX009 (ip), vehicle: saline) was 98 % of control.

In the case of `CCC1CCC2CCCCN2CO1` (stereo unspecified), the T/C (dose: 12.5 mg/kg/injection, schedule: Q01DX005 (ip), vehicle: saline) is reported as 101 % of control, the T/C (dose: 25.0 mg/kg/injection, schedule: Q01DX005 (ip), vehicle: saline) is reported as 118 % of control and the T/C [14] is reported as 114 % of control and 123 % of control. For the same molecule, the T/C (dose: 100.0 mg/kg/injection, schedule: Q01DX005 (ip), vehicle: saline) was 114 % of control and 121 % of control.

`O=C(O)c1c[nH]c2cc(OCCOc3ccc4ccccc4c3)ccc2c1=O` was tested, and the T/C (dose: 100.0 mg/kg/injection, schedule: Q04DX003 (ip), vehicle: saline) was 99 % of control, the T/C (dose: 200.0 mg/kg/injection, schedule: Q04DX003 (ip), vehicle: saline) was 88 % of control and the T/C (dose: 400.0 mg/kg/injection, schedule: Q04DX003 (ip), vehicle: saline) was 94 % of control.

With `COC(C(=O)C1=C2Oc3c4c(cc(O)c3C(=O)C2C2=C(CCCC2)C1=O)OC(C)(C)C=C4)C(C)CCC=C(C)C` (stereo unspecified) the T/C [14] was 112 % of control and the T/C (dose: 200.0 mg/kg/injection, schedule: Q01DX005 (ip), vehicle: saline) was 90 % of control.

In the case of `NCCN.O=S(=O)([O-])[O-].[Cu+2].[OH3+].[OH3+]`, the T/C (dose: 6.25 mg/kg/injection, schedule: Q04DX002 (ip), vehicle: saline) is reported as 100 % of control, the T/C (dose: 12.5 mg/kg/injection, schedule: Q04DX002 (ip), vehicle: saline) is reported as 100 % of control and the T/C (dose: 25.0 mg/kg/injection, schedule: Q04DX002 (ip), vehicle: saline) is reported as 100 % of control.

In the case of `Nc1cc(=O)[nH]c(=S)[nH]1.[Pd]`, the T/C (dose: 12.5 mg/kg/injection, schedule: Q01DX009 (ip), vehicle: distilled water + Tween-80) is reported as 108 % of control, the T/C (dose: 25.0 mg/kg/injection, schedule: Q01DX009 (ip), vehicle: distilled water + Tween-80) is reported as 97 % of control and the T/C (dose: 50.0 mg/kg/injection, schedule: Q01DX009 (ip), vehicle: distilled water + Tween-80) is reported as 100 % of control. For the same molecule, the T/C (dose: 100.0 mg/kg/injection, schedule: Q01DX009 (ip), vehicle: distilled water + Tween-80) was 95 % of control and the T/C (dose: 200.0 mg/kg/injection, schedule: Q01DX009 (ip), vehicle: distilled water + Tween-80) was 105 % of control.

`O=C(/C=C/c1ccccc1)NC1C=Nc2ccc(Cl)cc2NC1=O` (stereo unspecified) was tested, and the T/C [5] was 97 % of control, the T/C [6] was 95 % of control and the T/C [7] was 97 % of control.

`COCCn1nc(-c2ccc(Cl)cc2)c(-c2ccc(Cl)cc2)c(C(C)=O)c1=O` was tested, and the T/C [1] was 100 % of control, the T/C [15] was 100 % of control and the T/C [16] was 93 % of control.

`CC(C)(C)c1ccc(CN2CCN(C(c3ccccc3)c3ccc(Cl)cc3)CC2)cc1` (stereo unspecified) was tested, and the T/C (dose: 2.0 mg/kg/injection, schedule: Q01DX009 (ip), vehicle: saline with Tween-80) was 89 % of control, the T/C (dose: 4.0 mg/kg/injection, schedule: Q01DX009 (ip), vehicle: saline with Tween-80) was 95 % of control and the T/C (dose: 8.0 mg/kg/injection, schedule: Q01DX009 (ip), vehicle: saline with Tween-80) was 89 % of control. For the same molecule, the T/C (dose: 16.0 mg/kg/injection, schedule: Q01DX009 (ip), vehicle: saline with Tween-80) was 94 % of control, the T/C (dose: 32.0 mg/kg/injection, schedule: Q01DX009 (ip), vehicle: saline with Tween-80) was 94 % of control and the T/C (dose: 64.0 mg/kg/injection, schedule: Q01DX009 (ip), vehicle: saline with Tween-80) was 94 % of control.

For `CC1CCCN2C(=O)CN(Cc3ccccc3)CC(=O)N12` (stereo unspecified), the T/C [1] was 100 % of control, the T/C [15] was 100 % of control and the T/C [16] was 100 % of control.

In the case of `CN=C(N)NCCCCCCCCNC(N)=NC`, the T/C (dose: 3.13 mg/kg/injection, schedule: Q01DX009 (ip), vehicle: saline with Tween-80) is reported as 112 % of control, the T/C (dose: 3.13 mg/kg/injection, schedule: Q01DX009 (ip), vehicle: saline) is reported as 124 % of control and the T/C (dose: 6.25 mg/kg/injection, schedule: Q01DX009 (ip), vehicle: saline with Tween-80) is reported as 109 % of control. For the same molecule, the T/C (dose: 6.25 mg/kg/injection, schedule: Q01DX009 (ip), vehicle: saline) was 109 % of control, the T/C (dose: 12.5 mg/kg/injection, schedule: Q01DX009 (ip), vehicle: saline with Tween-80) was 112 % of control and the T/C (dose: 25.0 mg/kg/injection, schedule: Q01DX009 (ip), vehicle: saline) was 87 % of control.

For `Cc1noc(/N=N/N(C)c2ccccc2)c1C`, the T/C [8] was 103 % of control and the T/C [9] was 96 % of control.

With `COc1cc(/C=C\C=O)cc(OC)c1OC` the T/C [2] was 99 % of control, the T/C [3] was 110 % of control and the T/C [4] was 108 % of control.

With `COC(=O)c1cc(-c2cccnc2)[nH]c(=O)c1C#N` the T/C (dose: 60.0 mg/kg/injection, schedule: Q01DX005 (ip), vehicle: saline) was 104 % of control and the T/C (dose: 120.0 mg/kg/injection, schedule: Q01DX005 (ip), vehicle: saline) was 100 % of control.

In the case of `Cc1ccc(C)c(NC(=O)Nc2ccccc2C(N)=O)c1`, the T/C [11] is reported as 91 % of control, the T/C [12] is reported as 113 % of control and the T/C [13] is reported as 104 % of control.

In the case of `CC1(C)N=C(Oc2ccc(Cl)cc2Cl)NC(=S)N1`, the T/C [5] is reported as 95 % of control, the T/C [6] is reported as 97 % of control and the T/C [7] is reported as 95 % of control.
